Experimental data: patent US5730962A, “Depigmenting cosmetic or dermatologic composition containing a benzofuran derivative and its use in depigmentating skin” (L'Oreal, priority 1991, dated 1998)

system: fungus tyrosinase; test: in vitro inhibition test of the activity of tyrosinase (dopachrome formation, 475 nm); format: biochemical; settings: inhibitor at 50 molar percent relative to tyrosine; 0.1M phosphate buffer pH 6.5; 25° C.; optical density at 475 nm at plateau
Excerpt: Certain ones of the benzofuran derivatives have been comparatively studied with respect to hydroquinone, at molar equivalent amounts, in the in vitro inhibition test of the activity of tyrosinase.
According to this test the amount of dopachrome formed during the course of the reaction chain for the transformation of tyrosine into melanins is followed by visible spectrometry at 475 nm. These reactions are catalyzed, in vitro, by fungus tyrosinase, in the presence of a reducing co-substrate(for example, L-dopa in a small amount) to initiate the hydroxylation reaction of L-tyrosine into L-dopa, which is then catalytically oxidized into dopaquinone, then into dopachrome, produced intermediate before the non-enzymatic oxidation reactions terminating in the formation of melanins.
The concentration of dopachrome formed during the course of time in the presence and in the absence of the inhibitor is then measured.
The concentrations of inhibitors are fixed at 50 molar percent relative to the tyrosine concentration in the reaction medium.
The inhibition effect is expressed by the reduction of the maximum amount of dopachrome formed (optical density value at 475 nm read at the plateau of the curve) relative to the amount obtained in the absence of inhibitor.
A--0.1M phosphate buffer pH=6.5 (TWEEN 20 at 1%)
B--L-tyrosine mother solution at 2×10^-3 M in A
C--L-dopa mother solution at 10^-4 M in A
D--Fungus tyrosinase mother solution at 2,400 units/ml in A
E--Inhibitor mother solution at 10^-2 M in A (solutions C and D are prepared the same day).
Homogenize and equilibrate at 25° C.
rapidly mix and observe the kinetics by the measurement of the absorbance at 475 nm as a function of time.

| SMILES | % inhibitor (reduction of the maximum amount of dopachrome formed relative to the amount obtained in the absence of inhibitor) |
| --- | --- |
| Oc1ccc(O)cc1 [hydroquinone, reference compound] | 33% |
| Oc1ccc2c(c1)OCC2 | 66% |
| Oc1ccc2occc2c1 | 56% |
| Oc1ccc2ccoc2c1 | 54% |
